A word on the Ki: it is a measure of affinity in units of concentration, obtained from inhibition or displacement.

Read-outs that look alike come from different tables or passages of the source.

The target of assay [1] is NR2B-subtype NMDA receptors (Rattus norvegicus (Rat), UniProt P35439+Q00960). The assay is described as follows: Radioligand binding assay (3H Ro 25-6981 competition, rat forebrain membranes). As to conditions: 3H Ro 25-6981 (4 nM). The procedure: Radioligand Binding Assay. Binding experiments to determine binding to NR2B-subtype NMDA receptors were performed on forebrains of 8-10 weeks old male Sprague Dawley rats (Harlan, Netherlands) using ^3H Ro 25-6981 (Mutel V; Buchy D; Klingelschmidt A; Messer J; Bleuel Z; Kemp J A; Richards J G. Journal of Neurochemistry, 1998, 70(5):2147-2155. Rats were decapitated without anesthesia using a Guillotine (approved by animal ethics committee) and the harvested brains were snap-frozen and stored at −80° C. for 3-6 months for membrane preparation.
Sequence of NR2B-subtype NMDA receptors (Q00960 27-1482, other chains not shown): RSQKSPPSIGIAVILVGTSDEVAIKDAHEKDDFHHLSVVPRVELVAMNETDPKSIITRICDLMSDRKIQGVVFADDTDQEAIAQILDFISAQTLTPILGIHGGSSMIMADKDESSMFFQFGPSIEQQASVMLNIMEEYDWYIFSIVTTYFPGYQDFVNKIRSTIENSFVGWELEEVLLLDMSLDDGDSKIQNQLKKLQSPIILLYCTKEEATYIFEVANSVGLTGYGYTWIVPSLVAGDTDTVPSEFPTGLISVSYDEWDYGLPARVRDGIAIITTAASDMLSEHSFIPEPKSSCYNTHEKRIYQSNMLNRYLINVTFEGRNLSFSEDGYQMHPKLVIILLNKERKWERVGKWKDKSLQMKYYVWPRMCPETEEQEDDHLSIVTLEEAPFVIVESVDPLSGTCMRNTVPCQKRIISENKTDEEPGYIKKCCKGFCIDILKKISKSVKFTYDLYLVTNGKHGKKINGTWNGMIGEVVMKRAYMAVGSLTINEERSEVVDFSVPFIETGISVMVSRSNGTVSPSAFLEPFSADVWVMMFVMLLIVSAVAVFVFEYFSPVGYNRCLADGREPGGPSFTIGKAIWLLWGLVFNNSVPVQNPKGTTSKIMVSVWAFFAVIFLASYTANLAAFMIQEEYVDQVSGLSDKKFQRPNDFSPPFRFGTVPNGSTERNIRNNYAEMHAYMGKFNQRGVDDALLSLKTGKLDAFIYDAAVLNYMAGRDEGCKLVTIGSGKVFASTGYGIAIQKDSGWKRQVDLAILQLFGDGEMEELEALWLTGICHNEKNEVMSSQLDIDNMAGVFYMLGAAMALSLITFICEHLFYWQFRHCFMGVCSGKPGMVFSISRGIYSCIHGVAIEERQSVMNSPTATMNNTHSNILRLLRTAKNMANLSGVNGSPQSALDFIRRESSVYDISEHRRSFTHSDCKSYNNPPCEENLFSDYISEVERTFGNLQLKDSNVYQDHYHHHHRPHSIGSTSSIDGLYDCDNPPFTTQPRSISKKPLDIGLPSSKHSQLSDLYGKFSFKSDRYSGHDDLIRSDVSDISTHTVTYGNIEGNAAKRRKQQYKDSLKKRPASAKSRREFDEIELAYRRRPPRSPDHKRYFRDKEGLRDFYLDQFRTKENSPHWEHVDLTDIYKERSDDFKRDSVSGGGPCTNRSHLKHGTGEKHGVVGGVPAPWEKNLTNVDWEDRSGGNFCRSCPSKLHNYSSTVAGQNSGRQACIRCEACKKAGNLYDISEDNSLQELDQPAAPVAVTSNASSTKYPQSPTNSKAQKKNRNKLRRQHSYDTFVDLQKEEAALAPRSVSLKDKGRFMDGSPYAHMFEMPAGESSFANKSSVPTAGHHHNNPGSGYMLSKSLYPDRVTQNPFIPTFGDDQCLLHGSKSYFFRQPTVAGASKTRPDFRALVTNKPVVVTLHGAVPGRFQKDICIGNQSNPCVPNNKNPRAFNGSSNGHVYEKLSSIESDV
For membrane preparation, rat forebrains were thawed on ice for 20 minutes in homogenization buffer composed of 50 mM KH2PO4 (pH adjusted to 7.4 with KOH), 1 mM EDTA, 0.005% Triton X 100 and protease inhibitor cocktail (Sigma Aldrich). Thawed brains were homogenized using a Dounce homogenizer and centrifuged at 48000×g for 20 min. The pellet was resuspended in cold buffer and homogenized again using a Dounce homogenizer. Subsequently, the homogenate was aliquoted, snap-frozen and stored at −80° C. for not more than 3-4 months.
To perform the competition binding assay, thawed membrane homogenate was added to each well of a 96-well plate (20 μg/well). The experimental compounds were serially diluted in 100% DMSO and added to each row of the assay plate to achieve desired compound concentrations, keeping the DMSO concentration in the assay plate at 1.33% of the final reaction volume. Next, ^3H Ro 25-6981 (4 nM) was added to the assay plate. After incubation for 1 hr at room temperature, the membrane bound radioligand was harvested on to GF/B filter plates (treated with 0.5% PEI for 1 hr at room temperature). The filter plates were dried at 50° C. for 20 mins, incubated with microscint 20 for 10 minutes and finally, the counts were read on TopCount (Perkin Elmer).

Assay [2] addresses brain-resident NR2B-subtype receptors (Mus musculus (Mouse), UniProt P35438+Q01097). Briefly: Ex vivo occupancy assay. As to conditions: iv, mouse. It is filed as in vivo. The procedure:
Ex Vivo Occupancy Assay. […] 7-9 weeks old male CD-1 mice were dosed intravenously in a vehicle consisting of 10% dimethylacetamide, 40% PEG-400, 30% hydroxypropyl betacyclodextrin, and 30% water with experimental compounds and the forebrains were harvested 15 minutes post-dosing by decapitation. The brain samples were immediately snap-frozen and stored at −80° C. On the following day, the dosed brain samples were thawed on ice for 15-20 minutes followed by homogenization using Polytron for 10 seconds in cold homogenization buffer composed of 50 mM KH2PO4 (pH adjusted to 7.4 with KOH), 1 mM EDTA, 0.005% Triton X 100 and protease inhibitor cocktail (Sigma Aldrich). The crude homogenates were further homogenized using a Dounce homogenizer and the homogenized membrane aliquots from all animals were flash-frozen and stored at −80° C. until further use. The whole homogenization process was performed on ice. For determining occupancy, the membrane homogenates were first thawed on ice and then needle-homogenized using a 25 gauge needle. The homogenized membrane (6.4 mg/ml) was added to a 96-well plate followed by addition of ^3H Ro 25-6981 (6 nM). The reaction mixture was incubated for 5 minutes on a shaker at 4° C. and then harvested onto GF/B filter plates (treated with 0.5% PEI for 1 hr at room temperature). The filter plates were dried at 50° C. for 20 mins, incubated with microscint 20 for 10 minutes and read on TopCount (Perkin Elmer). Each dose or compound group consisted of 4-5 animals. The control group of animals was dosed with vehicle alone. Membrane from each animal was added in triplicates to the assay plate. Non-specific binding was determined using 10 μM Ro 25-6981 added to the wells containing membrane homogenates from vehicle-dosed animals. Specific counts/minute was converted to % occupancy at each dose of a compound for each animal using the following equation: […]
Drug levels were determined by mass spectroscopy in the usual manner. Drug levels in the blood plasma were 572 nM in at this dose, and drug levels in the homogenized brain tissue were 863 nM.

The subject of the next assay is mice. The assay is described as follows: Mouse Forced Swim Test (mFST). To be noted: 1 mg/Kg i.v., 15 min before 6 min swim session. In kind it is in vivo. The procedure:
Mouse Forced Swim Test (mFST). Forced Swim Test (FST) is an animal model used to assess antidepressant compounds in preclinical studies. The FST was performed similar to the method of Porsolt et al. with modifications (Porsolt R D, Bertin A, Jalfre M. Behavioral despair in mice: a primary screening test for antidepressants. Arch Int Pharmacodyn Thér 1977; 229:327-36). In this paradigm, mice are forced to swim in an inescapable cylinder filled with water. Under these conditions, mice will initially try to escape and eventually develop immobility behavior; this behavior is interpreted as a passive stress-coping strategy or depression-like behavior. […] The duration of immobility was evaluated during the total 6 min of the test and expressed as duration (sec) of immobility. […] All testing sessions were recorded with a video camera (Sony Handicam, Model: DCR-HC38E; PAL) and scoring was done using the Forced Swim Scan, Version 2.0 software (Clever Systems Inc., Reston, Va., USA; see Hayashi E, Shimamura M, Kuratani K, Kinoshita M, Hara H. Automated experimental system capturing three behavioral components during murine forced swim test. Life Sci. 2011 Feb. 28; 88(9-10):411-7 and Yuan P, Tragon T, Xia M, Leclair C A, Skoumbourdis A P, Zheng W, Thomas C J, Huang R, Austin C P, Chen G, Guitart X. Phosphodiesterase 4 inhibitors enhance sexual pleasure-seeking activity in rodents. […]

Sequence of brain-resident NR2B-subtype receptors (Q01097 27-1482, other chains not shown): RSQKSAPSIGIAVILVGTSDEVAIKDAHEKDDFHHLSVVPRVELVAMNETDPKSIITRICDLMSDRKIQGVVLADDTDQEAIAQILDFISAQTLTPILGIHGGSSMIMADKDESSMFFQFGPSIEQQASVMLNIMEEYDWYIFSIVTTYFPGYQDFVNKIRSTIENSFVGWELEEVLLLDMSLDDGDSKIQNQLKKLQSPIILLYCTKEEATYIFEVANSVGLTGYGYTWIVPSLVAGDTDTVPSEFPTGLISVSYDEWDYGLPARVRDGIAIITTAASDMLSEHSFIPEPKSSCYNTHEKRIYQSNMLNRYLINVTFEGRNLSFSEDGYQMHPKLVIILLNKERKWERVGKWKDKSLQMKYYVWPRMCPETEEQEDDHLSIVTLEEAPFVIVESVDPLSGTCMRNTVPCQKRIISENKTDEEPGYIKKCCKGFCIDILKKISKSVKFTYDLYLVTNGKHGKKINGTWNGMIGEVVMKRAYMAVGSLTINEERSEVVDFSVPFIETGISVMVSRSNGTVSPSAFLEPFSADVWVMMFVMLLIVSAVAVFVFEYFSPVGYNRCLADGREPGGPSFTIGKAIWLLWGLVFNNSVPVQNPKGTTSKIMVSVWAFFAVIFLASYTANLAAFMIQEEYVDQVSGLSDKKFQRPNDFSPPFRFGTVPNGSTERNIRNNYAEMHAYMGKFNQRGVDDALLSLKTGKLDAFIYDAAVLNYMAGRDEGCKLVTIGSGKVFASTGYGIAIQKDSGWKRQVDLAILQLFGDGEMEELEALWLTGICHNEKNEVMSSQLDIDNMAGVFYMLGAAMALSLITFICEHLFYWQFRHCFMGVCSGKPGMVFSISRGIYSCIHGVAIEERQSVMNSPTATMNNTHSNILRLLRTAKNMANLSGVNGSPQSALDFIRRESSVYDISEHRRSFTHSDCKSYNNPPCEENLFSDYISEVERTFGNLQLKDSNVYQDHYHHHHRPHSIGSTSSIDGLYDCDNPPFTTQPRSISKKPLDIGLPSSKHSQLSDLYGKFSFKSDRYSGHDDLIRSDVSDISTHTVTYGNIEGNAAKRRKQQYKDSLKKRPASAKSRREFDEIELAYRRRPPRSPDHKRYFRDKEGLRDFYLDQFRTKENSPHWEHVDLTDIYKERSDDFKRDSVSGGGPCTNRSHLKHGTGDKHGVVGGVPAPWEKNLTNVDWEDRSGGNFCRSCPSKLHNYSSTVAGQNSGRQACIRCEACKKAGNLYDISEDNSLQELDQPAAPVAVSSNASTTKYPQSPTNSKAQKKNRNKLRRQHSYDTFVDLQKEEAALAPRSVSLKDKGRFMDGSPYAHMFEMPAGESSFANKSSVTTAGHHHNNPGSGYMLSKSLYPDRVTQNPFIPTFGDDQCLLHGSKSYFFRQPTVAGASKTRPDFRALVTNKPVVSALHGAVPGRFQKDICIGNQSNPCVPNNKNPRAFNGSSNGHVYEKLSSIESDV

Take `Cc1ccc(CN2OCC(N3CCN(c4ccc(O)cn4)CC3)C2=O)cc1` (single isomer, unassigned) [Example 10, P-1, 4-(4-(5-hydroxypyridin-2-yl)piperazin-1-yl)-2-(4-methylbenzyl)isoxazolidin-3-one]: the Ki in assay [1] (listed as 10, P-1, read-out: NR2B Binding Ki) was determined as 3.2 nM; in assay [1] (read-out: binding Ki), 3.2 nM. Besides, the receptor occupancy at 1 mg/kg in assay [2] (1 mg/Kg i.v., forced swim test animals) was 69%. Moreover, in assay [2] (3 mg/Kg i.v., forebrain harvested 15 minutes post-dosing), the receptor occupancy at 3 mg/kg worked out at 94%. Further, the immobility time entry in the assay with mice is given as “statistically significant decrease”.

Values taken from patent publication US10501451B2, “Selective NR2B antagonists” (BRISTOL-MYERS SQUIBB COMPANY, priority 2015, dated 2019).
